# Where a SMILES comes first, the peptide text is derived from it. [ ]: non-standard residue; d: D form.
# Legend:
# Galanin receptor type 3 = target: T1, Galanin receptor type 3 (Rattus norvegicus, UniProt O88626)
# T1 sequence (O88626 whole entry): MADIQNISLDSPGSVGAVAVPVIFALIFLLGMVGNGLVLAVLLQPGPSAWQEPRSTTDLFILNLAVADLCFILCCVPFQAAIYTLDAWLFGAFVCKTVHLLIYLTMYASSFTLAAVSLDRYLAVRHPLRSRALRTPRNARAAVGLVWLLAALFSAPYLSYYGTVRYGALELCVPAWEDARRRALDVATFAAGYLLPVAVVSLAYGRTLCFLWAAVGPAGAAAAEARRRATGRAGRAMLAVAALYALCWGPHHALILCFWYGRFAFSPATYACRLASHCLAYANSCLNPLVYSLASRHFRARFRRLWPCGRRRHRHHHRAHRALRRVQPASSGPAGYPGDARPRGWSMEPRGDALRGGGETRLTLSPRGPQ
# Galanin receptor type 2 = target: T2, Galanin receptor type 2 (Rattus norvegicus, UniProt O08726)
# T2 sequence (O08726 whole entry): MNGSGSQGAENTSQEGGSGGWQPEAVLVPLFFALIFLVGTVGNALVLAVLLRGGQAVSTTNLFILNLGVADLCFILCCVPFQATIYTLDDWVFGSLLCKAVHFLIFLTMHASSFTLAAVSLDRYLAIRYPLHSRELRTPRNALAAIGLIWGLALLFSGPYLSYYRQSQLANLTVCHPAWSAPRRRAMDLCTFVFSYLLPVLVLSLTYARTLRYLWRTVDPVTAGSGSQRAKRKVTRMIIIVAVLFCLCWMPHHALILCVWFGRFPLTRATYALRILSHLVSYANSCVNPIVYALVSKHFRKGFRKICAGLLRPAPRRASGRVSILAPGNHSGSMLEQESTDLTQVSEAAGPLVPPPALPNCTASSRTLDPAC
compound,measurement,setting,value
CCC(C)C(NC(=O)C(C)NC(=O)C(Cc1cnc[nH]1)NC(=O)C1CCCN1C(=O)CNC(=O)C(CC(C)C)NC(=O)C(CC(C)C)NC(=O)C(Cc1ccc(O)cc1)NC(=O)CNC(=O)C(C)NC(=O)C(CO)NC(=O)C(CC(N)=O)NC(=O)C(CC(C)C)NC(=O)C(NC(=O)C(Cc1c[nH]c2ccccc12)NC(=O)CN)C(C)O)C(=O)NC(CC(=O)O)C(=O)NC(CC(N)=O)C(=O)NC(Cc1cnc[nH]1)C(=O)NC(CCCN=C(N)N)C(=O)NC(CO)C(=O)NC(Cc1ccccc1)C(=O)NC(CO)C(=O)NC(CC(=O)O)C(=O)NC(CCCCN)C(=O)NC(Cc1cnc[nH]1)C(=O)NCC(=O)NC(CC(C)C)C(=O)NC(C(=O)NCC(N)=O)C(C)O (stereo unspecified) [CAS_132699-74-2],Ki,Galanin receptor type 3,> 1000 nM
CC(C)C[C@H](NC(=O)[C@H](CC(C)C)NC(=O)[C@@H](Cc1c[nH]c2ccccc12)NC(=O)[C@H](Cc1ccccc1)NC(=O)[C@@H](Cc1c[nH]c2ccccc12)NC(=O)[C@H](CCC(N)=O)NC(=O)[C@H](CCC(N)=O)NC(=O)[C@@H]1CCCN1C(=O)[C@H](CCCCN)NC(=O)[C@@H]1CCCN1C(=O)[C@@H](CCCNC(=N)N)NC(=O)[C@@H]1CCCN1C(=O)CNC(=O)[C@H](CC(C)C)NC(=O)[C@H](CC(C)C)NC(=O)[C@H](Cc1ccc(O)cc1)NC(=O)CNC(=O)[C@H](C)NC(=O)[C@H](CO)NC(=O)[C@H](CC(N)=O)NC(=O)[C@H](CC(C)C)NC(=O)[C@@H](NC(=O)[C@H](Cc1c[nH]c2ccccc12)NC(=O)CN)[C@@H](C)O)C(N)=O [Gal(1-13)-Std I] (H-GWTLNSAGYLLGP[dR]PKPQQ[dW]F[dW]LL-NH2),Ki,Galanin receptor type 3,0.75 nM
H-LPGLPSAASSEDAGQS-NH2 [CAS_125455-59-6],Ki,Galanin receptor type 3,> 1000 nM
same,Ki,Galanin receptor type 2,1000 nM
"CC(C)C[C@H](NC(=O)[C@H](CC(C)C)NC(=O)[C@H](Cc1ccc(O)cc1)NC(=O)[C@@H](Cc1c[nH]c2ccccc12)NC(=O)[C@H](C)NC(=O)[C@H](C)NC(=O)[C@H](CC(N)=O)NC(=O)[C@H](CC(C)C)NC(=O)[C@@H](NC(=O)[C@H](Cc1c[nH]c2ccccc12)NC(=O)CN)[C@@H](C)O)C(=O)NCC(=O)N1CCC[C@H]1C(=O)N[C@@H](Cc1cnc[nH]1)C(=O)N[C@@H](C)CO [Galanin (1-15)-ol,[Ala6,D-trp8]]",Ki,Galanin receptor type 3,17.9 nM
"H-LLGPHAIDNHRSFSDKHGLT-NH2 [Galanin (10-29), rat]",Ki,Galanin receptor type 3,1000 nM
"CC[C@H](C)[C@H](NC(=O)[C@H](C)NC(=O)[C@H](Cc1c[nH]cn1)NC(=O)[C@@H]1CCCN1C(=O)CNC(=O)[C@H](CC(C)C)NC(=O)[C@H](CC(C)C)NC(=O)[C@H](Cc1ccc(O)cc1)NC(=O)CNC(=O)[C@H](C)NC(=O)[C@H](CO)NC(=O)[C@H](CC(N)=O)NC(=O)[C@H](CC(C)C)NC(=O)[C@@H](N)[C@@H](C)O)C(=O)N[C@@H](CC(=O)O)C(=O)N[C@@H](CC(N)=O)C(=O)N[C@@H](Cc1c[nH]cn1)C(=O)N[C@@H](CCCNC(=N)N)C(=O)N[C@@H](CO)C(=O)N[C@@H](Cc1ccccc1)C(=O)N[C@@H](CO)C(=O)N[C@@H](CC(=O)O)C(=O)N[C@@H](CCCCN)C(=O)N[C@@H](Cc1c[nH]cn1)C(=O)NCC(=O)N[C@@H](CC(C)C)C(=O)N[C@H](C(N)=O)[C@@H](C)O [Galanin (3-29), rat]",Ki,Galanin receptor type 3,1000 nM
CC[C@H](C)[C@H](NC(=O)[C@H](C)NC(=O)[C@H](Cc1cnc[nH]1)NC(=O)[C@@H]1CCCN1C(=O)CNC(=O)[C@H](CC(C)C)NC(=O)[C@H](CC(C)C)NC(=O)[C@H](Cc1ccc(O)cc1)NC(=O)CNC(=O)[C@H](C)NC(=O)[C@H](CO)NC(=O)[C@H](CC(N)=O)NC(=O)[C@H](CC(C)C)NC(=O)[C@@H](NC(=O)[C@H](Cc1c[nH]c2ccccc12)NC(=O)CN)[C@@H](C)O)C(=O)N[C@@H](CC(=O)O)C(=O)N[C@@H](CC(N)=O)C(=O)N[C@@H](Cc1cnc[nH]1)C(N)=O [Galanin rat],Ki,Galanin receptor type 3,6.25 nM
same,Ki,Galanin receptor type 2,4.7 nM
"CC(C)C[C@H](NC(=O)[C@H](CC(C)C)NC(=O)[C@@H](Cc1c[nH]c2ccccc12)NC(=O)[C@@H](Cc1c[nH]c2ccccc12)NC(=O)[C@H](C)NC(=O)[C@H](NC(=O)[C@H](CC(N)=O)NC(=O)[C@H](CC(C)C)NC(=O)[C@@H](NC(=O)[C@H](Cc1c[nH]c2ccccc12)NC(=O)CN)[C@@H](C)O)[C@H](C)O)C(=O)NCC(=O)N1CCC[C@H]1C(=O)N[C@@H](Cc1cnc[nH]1)C(=O)N[C@@H](C)CO [Gal-(1-15)-ol,[d-Thr6,d-Trp8,9]]",Ki,Galanin receptor type 3,1000 nM
H-GWTLNSAGYLLGPPPALALA-NH2 [M40],Ki,Galanin receptor type 3,54 nM
same,Ki,Galanin receptor type 2,2.88 nM
H-ELEPEDEARPGGFDRLQSQDKAIRTIMEFLAFLHLKEAGAL-NH2 [GMAP (1-41)],Ki,Galanin receptor type 3,1000 nM
CC[C@H](C)[C@H](NC(=O)[C@H](C)NC(=O)[C@H](Cc1c[nH]cn1)NC(=O)[C@@H]1CCCN1C(=O)CNC(=O)[C@H](CC(C)C)NC(=O)[C@H](CC(C)C)NC(=O)[C@H](Cc1ccc(O)cc1)NC(=O)CNC(=O)[C@H](C)NC(=O)[C@H](CO)NC(=O)[C@H](CC(N)=O)NC(=O)[C@H](CC(C)C)NC(=O)[C@@H](NC(=O)[C@@H](N)Cc1c[nH]c2ccccc12)[C@@H](C)O)C(=O)N[C@@H](CC(=O)O)C(=O)N[C@@H](CC(N)=O)C(=O)N[C@@H](Cc1c[nH]cn1)C(=O)N[C@@H](CCCNC(=N)N)C(=O)N[C@@H](CO)C(=O)N[C@@H](Cc1ccccc1)C(=O)N[C@@H](CO)C(=O)N[C@@H](CC(=O)O)C(=O)N[C@@H](CCCCN)C(=O)N[C@@H](Cc1c[nH]cn1)C(=O)NCC(=O)N[C@@H](CC(C)C)C(=O)N[C@H](C(N)=O)[C@@H](C)O [Galanin Porcine 2-29],Ki,Galanin receptor type 3,12.6 nM
same,Ki,Galanin receptor type 2,1.92 nM
CC(C)C[C@H](NC(=O)[C@H](CC(C)C)NC(=O)[C@H](Cc1ccc(O)cc1)NC(=O)CNC(=O)[C@H](C)NC(=O)[C@H](CO)NC(=O)[C@H](CC(N)=O)NC(=O)[C@H](CC(C)C)NC(=O)[C@@H](NC(=O)[C@H](Cc1c[nH]c2ccccc12)NC(=O)CN)[C@@H](C)O)C(=O)NCC(=O)N1CCC[C@H]1C(=O)N1CCC[C@H]1C(=O)N1CCC[C@H]1C(=O)NCC(=O)N[C@@H](Cc1ccccc1)C(=O)N[C@@H](CO)C(=O)N1CCC[C@H]1C(=O)N[C@@H](Cc1ccccc1)C(=O)N[C@@H](CCCN=C(N)N)C(N)=O,Ki,Galanin receptor type 3,7.5 nM

# — BindingDB's records for doi:10.1074/jbc.272.51.31949 (Schering-Plough Research Institute, 1997)
